Measured values as given in ChEMBL document CHEMBL1201862, “PubChem BioAssay data set” (2004).
One block for each molecule: values may come before it. Activity calls are given as the source filed them.

Experiments:
Interleukin-8 = Interleukin-8 (Homo sapiens, UniProt P10145); assay: Dose Response confirmation of uHTS small molecule hits for cystic fibrosis induced NFkb Inhibitors in a PAF-induced IL8 counterscreen.; assay type: functional; details: read-out: IC50_Mean
[1] = inhibitors of HIV Env-driven cell fusion, dose response, cherry-pick (AID 652057); assay type: functional, cell-based
[2] = off-target signal loss in HeLa-CEM21 co-culture – HeLa F-luc CTL cells, cherry-picked, counter-screen for HIV-1 Env fusion inhibitor project, dose response (AID 652040); assay type: functional, cell-based;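 also: potency for signal decrease marking cytotoxic or nonspecific inhibition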
[3] = inhibitors of clade B AD8 Env fusion, dose response, cell-based, cherry-pick (AID 652062); assay type: functional;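 also: luciferase signal from cell-cell fusion driven by HIV-1 clade B AD8 Env; potency is for inhibitors of fusion seen as a drop in luminescence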
CHO-K1 = assay: (§1) Counterscreen for antagonists of the orexin 1 receptor (OX1R; HCRTR1): Homogeneous time resolved fluorescence (HTRF)-based cell-based dose response assay to identify antagonists of the parental CHO-K1 cell line. [Related pubchem assays (depositor defined):AID434989, AID435008, AID463079, AID485270, AID492963, AID492964, AID492965, AID493232, AID504699, AID504701]; assay type: functional; details: Cricetulus griseus
[4] = as §1, with “Fluorescence-based” for “Homogeneous time resolved fluorescence (HTRF)-based”, “cell-based high throughput” for “cell-based”, “CHO” for “CHO-K1”; assay type: functional
[5] = target: T1, Orexin/Hypocretin receptor type 1 (Homo sapiens, UniProt O43613); assay: Homogeneous Time Resolved Fluorescence (HTRF)-based cell-based high throughput dose response assay for antagonists of the orexin 1 receptor (OX1R; HCRTR1). [Related pubchem assays (depositor defined):AID434989, AID435008, AID463079, AID485270, AID492963, AID492964, AID492965, AID493232, AID504717, AID504718]; assay type: functional
T1 sequence (O43613 whole entry): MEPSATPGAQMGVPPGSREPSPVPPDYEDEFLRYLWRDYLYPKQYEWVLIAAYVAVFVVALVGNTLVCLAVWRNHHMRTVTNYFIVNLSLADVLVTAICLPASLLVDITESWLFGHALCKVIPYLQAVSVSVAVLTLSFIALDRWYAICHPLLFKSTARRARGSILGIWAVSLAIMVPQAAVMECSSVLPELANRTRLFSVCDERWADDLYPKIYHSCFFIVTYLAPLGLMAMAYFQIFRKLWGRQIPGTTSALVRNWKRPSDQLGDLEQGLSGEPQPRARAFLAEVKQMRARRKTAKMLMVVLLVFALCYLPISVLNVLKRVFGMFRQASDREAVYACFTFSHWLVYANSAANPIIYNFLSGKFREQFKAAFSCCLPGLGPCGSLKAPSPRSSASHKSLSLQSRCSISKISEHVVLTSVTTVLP

[6] = target: T1, Orexin/Hypocretin receptor type 1; assay: Fluorescence-based cell-based high throughput dose response assay for antagonists of the orexin 1 receptor (OX1R; HCRTR1). [Related pubchem assays (depositor defined):AID434989, AID435008, AID463079, AID485270, AID492963, AID492964, AID492965, AID493232, AID504717, AID504718]; assay type: functional
Orexin receptor type 2 [7] = target: T2, Orexin receptor type 2 (Homo sapiens, UniProt O43614); assay: Counterscreen assay for antagonists of the orexin 1 receptor (OX1R; HCRTR1): Fluorescence-based cell-based dose response assay for antagonists of the orexin 2 receptor (OX2R; HCRTR2), run by assay provider.; assay type: functional
T2 sequence (O43614 whole entry): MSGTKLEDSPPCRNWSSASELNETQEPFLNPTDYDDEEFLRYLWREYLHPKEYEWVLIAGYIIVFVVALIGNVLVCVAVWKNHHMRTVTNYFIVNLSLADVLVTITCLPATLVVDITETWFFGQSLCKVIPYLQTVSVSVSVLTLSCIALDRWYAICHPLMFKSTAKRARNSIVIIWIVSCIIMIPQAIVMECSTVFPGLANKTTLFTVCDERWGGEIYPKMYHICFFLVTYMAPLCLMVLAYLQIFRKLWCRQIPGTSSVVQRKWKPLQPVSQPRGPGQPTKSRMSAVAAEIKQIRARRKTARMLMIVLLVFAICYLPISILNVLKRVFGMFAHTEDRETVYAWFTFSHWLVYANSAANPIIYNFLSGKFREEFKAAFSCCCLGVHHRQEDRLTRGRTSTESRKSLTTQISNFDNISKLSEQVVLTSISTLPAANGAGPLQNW

Orexin receptor type 2 [8] = target: T2, Orexin receptor type 2; assay: Counterscreen assay for antagonists of the orexin 1 receptor (OX1R; HCRTR1): Homogeneous Time Resolved Fluorescence (HTRF)-based cell-based dose response assay for antagonists of the orexin 2 receptor (OX2R; HCRTR2), run by assay provider.; assay type: functional
[9] = target: DNA (cytosine-5)-methyltransferase 1 (Homo sapiens, UniProt P26358); assay: DNMT1 methyltransferase inhibitors, confirmation, biochemical, fluorescent molecular beacon (AID 602386); assay type: functional
Sequence of DNA (cytosine-5)-methyltransferase 1 (P26358 whole entry): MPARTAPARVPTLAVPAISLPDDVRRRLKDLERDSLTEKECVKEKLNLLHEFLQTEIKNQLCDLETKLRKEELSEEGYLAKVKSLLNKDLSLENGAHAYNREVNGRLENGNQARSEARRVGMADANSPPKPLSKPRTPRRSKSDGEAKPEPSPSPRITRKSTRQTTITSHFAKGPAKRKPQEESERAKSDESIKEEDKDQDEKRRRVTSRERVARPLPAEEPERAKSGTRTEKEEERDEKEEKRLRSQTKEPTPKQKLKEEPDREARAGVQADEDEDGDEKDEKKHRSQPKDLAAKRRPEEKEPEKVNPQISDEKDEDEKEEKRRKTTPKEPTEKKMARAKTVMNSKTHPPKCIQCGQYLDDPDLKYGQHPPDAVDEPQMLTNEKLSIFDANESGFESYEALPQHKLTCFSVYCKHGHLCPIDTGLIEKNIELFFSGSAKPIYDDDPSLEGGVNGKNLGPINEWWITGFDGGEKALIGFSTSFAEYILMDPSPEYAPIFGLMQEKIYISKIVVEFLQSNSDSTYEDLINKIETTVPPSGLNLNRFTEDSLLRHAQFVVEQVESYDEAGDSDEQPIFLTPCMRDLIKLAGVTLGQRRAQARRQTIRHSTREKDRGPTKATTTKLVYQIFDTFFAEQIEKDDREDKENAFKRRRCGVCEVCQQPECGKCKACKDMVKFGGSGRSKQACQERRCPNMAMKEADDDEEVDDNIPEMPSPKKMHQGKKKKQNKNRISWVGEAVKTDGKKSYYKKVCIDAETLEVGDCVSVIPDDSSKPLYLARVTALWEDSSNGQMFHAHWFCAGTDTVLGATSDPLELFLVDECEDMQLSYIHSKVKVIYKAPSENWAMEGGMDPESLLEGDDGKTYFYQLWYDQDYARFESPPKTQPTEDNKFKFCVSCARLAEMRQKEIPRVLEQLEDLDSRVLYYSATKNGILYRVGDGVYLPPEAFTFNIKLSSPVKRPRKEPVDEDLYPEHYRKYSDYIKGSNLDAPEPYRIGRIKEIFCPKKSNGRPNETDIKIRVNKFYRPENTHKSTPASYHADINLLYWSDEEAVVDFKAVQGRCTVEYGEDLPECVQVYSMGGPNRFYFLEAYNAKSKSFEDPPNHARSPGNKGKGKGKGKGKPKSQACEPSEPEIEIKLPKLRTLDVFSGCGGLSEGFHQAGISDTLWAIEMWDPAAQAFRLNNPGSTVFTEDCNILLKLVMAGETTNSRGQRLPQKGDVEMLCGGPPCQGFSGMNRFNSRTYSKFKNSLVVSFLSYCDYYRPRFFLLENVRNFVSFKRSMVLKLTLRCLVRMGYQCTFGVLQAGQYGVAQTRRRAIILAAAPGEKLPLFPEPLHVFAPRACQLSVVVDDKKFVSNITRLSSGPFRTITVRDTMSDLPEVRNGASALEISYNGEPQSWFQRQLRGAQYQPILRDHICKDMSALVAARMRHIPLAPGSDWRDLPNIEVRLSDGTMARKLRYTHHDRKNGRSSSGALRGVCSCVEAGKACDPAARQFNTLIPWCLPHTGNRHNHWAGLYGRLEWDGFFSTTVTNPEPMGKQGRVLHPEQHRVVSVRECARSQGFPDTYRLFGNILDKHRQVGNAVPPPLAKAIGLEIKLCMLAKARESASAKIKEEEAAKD

[10] = target: 26S proteasome non-ATPase regulatory subunit 14 (Homo sapiens, UniProt O00487); assay: inhibition of proteasome subunit RPN11 – biochemical, fluorescence polarization, uHTS hits, confirmation (AID 602368); assay type: functional
Sequence of 26S proteasome non-ATPase regulatory subunit 14 (O00487 whole entry): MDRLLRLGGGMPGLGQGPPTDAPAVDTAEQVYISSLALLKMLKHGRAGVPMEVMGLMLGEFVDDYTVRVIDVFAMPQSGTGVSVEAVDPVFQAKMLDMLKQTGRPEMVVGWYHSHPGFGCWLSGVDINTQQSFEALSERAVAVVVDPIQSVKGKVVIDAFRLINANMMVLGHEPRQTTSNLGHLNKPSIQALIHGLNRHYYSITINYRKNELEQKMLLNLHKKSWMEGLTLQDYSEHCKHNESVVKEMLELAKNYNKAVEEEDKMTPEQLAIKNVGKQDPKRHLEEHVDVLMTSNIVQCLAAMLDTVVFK

[11] = target: 72 kDa type IV collagenase (Homo sapiens, UniProt P08253); assay: Dose Response validation of uHTS RPN11 inhibitor hits using a MMP-2 Fluorescence assay.; assay type: functional
Sequence of 72 kDa type IV collagenase (P08253 whole entry): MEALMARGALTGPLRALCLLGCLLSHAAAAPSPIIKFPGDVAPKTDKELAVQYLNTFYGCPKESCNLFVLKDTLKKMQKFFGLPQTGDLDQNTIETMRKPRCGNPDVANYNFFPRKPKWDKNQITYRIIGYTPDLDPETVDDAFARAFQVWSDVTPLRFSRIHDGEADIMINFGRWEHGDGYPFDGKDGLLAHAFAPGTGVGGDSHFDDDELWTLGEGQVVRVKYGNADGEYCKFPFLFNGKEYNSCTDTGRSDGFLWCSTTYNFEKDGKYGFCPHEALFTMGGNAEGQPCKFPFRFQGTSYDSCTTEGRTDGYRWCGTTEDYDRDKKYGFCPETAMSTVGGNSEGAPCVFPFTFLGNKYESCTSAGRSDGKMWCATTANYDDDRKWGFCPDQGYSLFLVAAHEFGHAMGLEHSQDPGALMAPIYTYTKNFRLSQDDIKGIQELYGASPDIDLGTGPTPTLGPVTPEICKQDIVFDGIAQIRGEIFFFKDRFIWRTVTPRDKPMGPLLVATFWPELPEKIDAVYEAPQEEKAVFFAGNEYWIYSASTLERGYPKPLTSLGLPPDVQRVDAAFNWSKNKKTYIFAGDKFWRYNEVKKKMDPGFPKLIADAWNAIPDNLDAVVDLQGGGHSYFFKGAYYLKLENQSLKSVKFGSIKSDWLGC

Prothrombin = Prothrombin (Bos taurus, UniProt P00735); assay: thrombin inhibition, dose response, biochemical, fluorescence polarization, uHTS hits (AID 602369); assay type: functional

Sequence of Interleukin-8 (P10145 whole entry, the tested form may be a part): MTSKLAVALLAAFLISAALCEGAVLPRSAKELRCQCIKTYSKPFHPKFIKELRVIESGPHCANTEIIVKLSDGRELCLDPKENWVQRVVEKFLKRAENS

SMILES: COc1ccc(-c2cc(=O)oc3c(C)c(O)ccc23)cc1
- IC50 (Interleukin-8): > 79 µM (inactive)
- AC50 [1]: 3.8 µM (active)
- AC50 [2]: 9.72 µM (active)
- AC50 [3]: 5.69 µM (active)

SMILES: Cc1ccc(NC2CCCN(C(=O)c3cccc(-c4ncc[nH]4)c3)C2)cc1C (centres undefined)
- IC50 (CHO-K1): > 66.2 µM (inactive)
- IC50 [4]: > 49.7 µM (inactive)
- IC50 [5]: 0.175 µM (active)
- IC50 [6]: 2.99 µM (active)
- IC50 (Orexin receptor type 2 [7]): 17.1 µM (inactive)
- IC50 (Orexin receptor type 2 [8]): 4.48 µM (active)

- IC50 [9]: 5.56 µM (active)
- IC50 [10]: 7.92 µM (active)
- IC50 [11]: 10.3 µM (active)
- IC50 (Prothrombin): 29 µM (active)
SMILES: O=C(O)CCCCCN1C(=O)/C(=C/c2cn(-c3ccccc3)nc2-c2cccs2)SC1=S
